Test results from patent US10266526B2, “Substituted 1,2,3-triazoles as SMYD inhibitors for treating cancer” (EPIZYME, INC., priority 2014, dated 2019).
Where a name gives a salt, the structure may show the parent alone. Read-outs that look alike come from different tables or passages of the source.

Biological target: SMYD3 (Homo sapiens (Human), UniProt Q9H7B4)
Assay: SMYD3 biochemical assay (SMYD3 enzyme assay on MEKK2 protein substrate, 3H-SAM scintillation proximity assay)
Method in brief: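 Native full-length human SMYD3, expressed in E. coli, was preincubated with compound for 30 min at room temperature in 25 mM Tris-Cl pH 8.0, 1 mM TCEP, 0.005% BSG and 0.005% Tween 20. ³H-SAM plus GST-MEKK2 then started the reaction. It was stopped with unlabeled SAM (100 uM final), and methylated MEKK2 was read by SPA.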

[1] = Table 1A, average of n = 1 to n = 50, read-out: SMYD3 Biochem IC50
[2] = read-out: SMYD3 Biochem IC50 (μM)*

Chain of SMYD3 (Q9H7B4 whole entry): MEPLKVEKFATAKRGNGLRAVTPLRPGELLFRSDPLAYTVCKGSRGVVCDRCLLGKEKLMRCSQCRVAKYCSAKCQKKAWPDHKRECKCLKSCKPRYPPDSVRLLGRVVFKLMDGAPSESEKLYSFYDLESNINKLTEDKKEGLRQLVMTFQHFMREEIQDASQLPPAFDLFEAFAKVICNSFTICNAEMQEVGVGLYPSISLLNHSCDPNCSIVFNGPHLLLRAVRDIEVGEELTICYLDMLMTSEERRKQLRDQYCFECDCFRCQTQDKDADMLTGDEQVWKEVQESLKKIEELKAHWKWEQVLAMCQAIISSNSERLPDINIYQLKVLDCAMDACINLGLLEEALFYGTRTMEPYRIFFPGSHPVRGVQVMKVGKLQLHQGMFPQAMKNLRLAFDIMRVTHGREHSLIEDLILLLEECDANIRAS

Row | Structure (SMILES) | IC50 (read-out: SMYD3 Biochem IC50) | IC50 [2] | further results
1 | N[C@H]1CC[C@H](NC(=O)c2n[nH]c(=O)[nH]2)CC1 [compound 531, N-((1r,4r)-4-aminocyclohexyl)-5-oxo-4,5-dihydro-1H-1,2,4-triazole-3-carboxamide] |  |  | IC50 [1]: > 50 µM
2 | C[C@@H]1C[C@@H](NC(=O)c2ccccc2)CCN1S(=O)(=O)CCCN (racemic) [compound 563, (±)-trans-N-(1-((3-aminopropyl)sulfonyl)-2-methylpiperidin-4-yl)benzamide] |  |  | IC50 [1]: > 10 µM
3 | CC(NC(=O)c1ccc2c(c1)CC(=O)N2)C1CCN(C(=O)[C@H](C)N)CC1 (stereo partly drawn) [Cpd. No. 86, N-(1-(1-((S)-2-aminopropanoyl)piperidin-4-yl)ethyl)-2-oxoindoline-5-carboxamide Hydrochloride] |  | 1.43 µM | 
4 | COc1cc(C(=O)N[C@H]2CC[C@H](N)CC2)cc2c1OCC(=O)N2 [compound 85, N-((1r,4r)-4-aminocyclohexyl)-8-methoxy-3-oxo-3,4-dihydro-2H-benzo[b][1,4]oxazine-6-carboxamide] |  | 184 µM | 
5 | N[C@H]1CC[C@H](NC(=O)c2cccc3c2OCC(=O)N3)CC1 [compound 115, N-((1r,4r)-4-aminocyclohexyl)-3-oxo-3,4-dihydro-2H-benzo[b][1,4]oxazine-8-carboxamide] |  | 61.2 µM | 
6 | Cc1cc(C(=O)NC(c2ccccc2)C2CCNCC2)n(-c2ccccc2)n1 (centres unmarked) [compound 31, 3-methyl-1-phenyl-N-(phenyl(piperidin-4-yl)methyl)-1H-pyrazole-5-carboxamide] |  | 56.7 µM | 
7 | CC(NC(=O)c1ccc2c(c1)CCCC2)C1CCN(C(=O)[C@H](C)N)CC1 (stereo partly drawn) [compound 202, N-(1-(1-(L-alanyl)piperidin-4-yl)ethyl)-5,6,7,8-tetrahydronaphthalene-2-carboxamide] | 59 µM |  | 
8 | O=C1Cc2cc(C(=O)NCC3CCNCC3)ccc2N1 [Cpd. No. 100, 2-oxo-N-(piperidin-4-ylmethyl)indoline-5-carboxamide Hydrochloride] |  | 20 µM | 
9 | N[C@H]1CC[C@H](NC(=O)c2cnc3ncccn23)CC1 [compound 574, N-((1r,4r)-4-aminocyclohexyl)imidazo[1,2-a]pyrimidine-3-carboxamide] |  |  | IC50 [1]: > 10 µM
10 | CN1C(=O)Cc2cc(C(=O)NC3CCN(C(=O)[C@@H](N)Cc4ccc(O)cc4)CC3)ccc21 [compound 82, N-(1-(L-tyrosyl)piperidin-4-yl)-1-methyl-2-oxoindoline-5-carboxamide] |  | 8.7 µM | 
11 | N[C@H]1CC[C@H](NC(=O)c2ccc3c(c2)NC(=O)CO3)CC1 [compound 20, N-((1r,4r)-4-aminocyclohexyl)-3-oxo-3,4-dihydro-2H-benzo[b][1,4]oxazine-6-carboxamide] |  | 16 µM | 
12 | NCCC(=O)N[C@H]1CC[C@H](NC(=O)c2cc(Cl)[nH]n2)CC1 [compound 528, N-((1r,4r)-4-(3-aminopropanamido)cyclohexyl)-5-chloro-1H-pyrazole-3-carboxamide] |  |  | IC50 [1]: > 50 µM
13 | O=C1Cc2cc(C(=O)NC3CCNCC3)cnc2N1 [compound 68, 2-oxo-N-(piperidin-4-yl)-2,3-dihydro-1H-pyrrolo[2,3-b]pyridine-5-carboxamide] |  | 86.1 µM | 
14 | CC(=O)Nc1ccc(S(=O)(=O)N2CCC(NC(=O)c3cccnc3)CC2)cc1 [compound 3, N-(1-((4-acetamidophenyl)sulfonyl)piperidin-4-yl)nicotinamide] |  | > 100 µM | 
15 | CC(NC(=O)c1ccc2c(c1)CC(=O)N2)C1CCN(C(=O)[C@@H](C)N)CC1 (stereo partly drawn) [compound 87, N-(1-(1-(D-alanyl)piperidin-4-yl)ethyl)-2-oxoindoline-5-carboxamide] |  | 9.37 µM | 
16 | CC(=O)Nc1cccc(C(=O)N[C@H]2CC[C@H](N)CC2)c1 [compound 24, 3-acetamido-N-((1r,4r)-4-aminocyclohexyl)benzamide] |  | 80.3 µM | 
17 | NCCC(=O)N[C@H]1CC[C@H](NC(=O)Cc2c[nH]c3ccccc23)CC1 [compound 195, N-((1r,4r)-4-(2-(1H-indol-3-yl)acetamido)cyclohexyl)-3-aminopropanamide] | > 100 µM |  | 

Now from value to compound, other results behind:

Row | IC50 (read-out: SMYD3 Biochem IC50) | IC50 [2] | Structure (SMILES) | further results
18 | 12.9 µM |  | NCCC(=O)N[C@H]1CC[C@H](NC(=O)c2noc(C3CC3)n2)CC1 [compound 485, N-((1r,4r)-4-(3-aminopropanamido)cyclohexyl)-5-cyclopropyl-1,2,4-oxadiazole-3-carboxamide] | 
19 | > 100 µM |  | CC(NC(=O)c1ccc2c(c1)OC(F)(F)O2)C1CCN(C(=O)[C@H](C)N)CC1 (stereo partly drawn) [compound 284, N-(1-(1-(L-alanyl)piperidin-4-yl)ethyl)-2,2-difluorobenzo[d][1,3]dioxole-5-carboxamide] | 
20 | > 100 µM |  | COc1cncc(C(=O)NC(C)C2CCN(C(=O)[C@H](C)N)CC2)n1 (stereo partly drawn) [compound 261, N-(1-(1-(L-alanyl)piperidin-4-yl)ethyl)-6-methoxypyrazine-2-carboxamide] | 
21 | > 100 µM |  | NCCC(=O)N[C@H]1CC[C@H](NC(=O)c2cncnc2N)CC1 [compound 420, 4-amino-N-((1r,4r)-4-(3-aminopropanamido)cyclohexyl)pyrimidine-5-carboxamide] | 
22 | 44.5 µM |  | NCCC(=O)N[C@H]1CC[C@H](NC(=O)c2cccnc2O)CC1 [compound 410, N-((1r,4r)-4-(3-aminopropanamido)cyclohexyl)-2-hydroxynicotinamide] | 
23 | > 100 µM |  | N[C@H]1CC[C@H](NC(=O)c2ccc(O)nc2)CC1 [compound 295, N-((1r,4r)-4-aminocyclohexyl)-6-hydroxynicotinamide] | 
24 | > 100 µM |  | CC(NC(=O)c1cccc2c1OC(F)(F)O2)C1CCN(C(=O)[C@H](C)N)CC1 (stereo partly drawn) [compound 266, N-(1-(1-(L-alanyl)piperidin-4-yl)ethyl)-2,2-difluorobenzo[d][1,3]dioxole-4-carboxamide] | 
25 | > 100 µM |  | Nc1ncncc1C(=O)N[C@H]1CC[C@H](N)CC1 [compound 421, 4-amino-N-((1r,4r)-4-aminocyclohexyl)pyrimidine-5-carboxamide] | 
26 | > 100 µM |  | NCCC(=O)N[C@H]1CC[C@H](NC(=O)c2ccc(N)nc2)CC1 [compound 388, 6-amino-N-((1r,4r)-4-(3-aminopropanamido)cyclohexyl)nicotinamide] | 
27 | 7.46 µM |  | N[C@H]1CC[C@H](NC(=O)c2ccc3c(c2)C(=O)C(=O)N3)CC1 [compound 470, N-((1r,4r)-4-aminocyclohexyl)-2,3-dioxoindoline-5-carboxamide] | 
28 | 86.3 µM |  | NCCC(=O)N[C@H]1CC[C@H](NC(=O)c2nc3ccc(F)cc3s2)CC1 [compound 499, N-((1r,4r)-4-(3-aminopropanamido)cyclohexyl)-6-fluorobenzo[d]thiazole-2-carboxamide] | 
29 | > 100 µM |  | Cc1c(C(=O)N[C@H]2CC[C@H](N)CC2)nnn1-c1ccccc1 [compound 273, N-((1r,4r)-4-aminocyclohexyl)-5-methyl-1-phenyl-1H-1,2,3-triazole-4-carboxamide] | 
30 | 43.7 µM |  | Nc1ccnc2ccc(C(=O)N[C@H]3CC[C@H](N)CC3)cc12 [compound 211, 4-amino-N-((1r,4r)-4-aminocyclohexyl)quinoline-6-carboxamide] | 
31 | > 100 µM |  | Cn1c(C(=O)N[C@H]2CC[C@H](N)CC2)cc2ccccc21 [compound 246, N-((1r,4r)-4-aminocyclohexyl)-1-methyl-1H-indole-2-carboxamide] | 
32 | 37.5 µM |  | CC(NC(=O)c1cc2cccc(O)c2cc1O)C1CCN(C(=O)[C@H](C)N)CC1 (stereo partly drawn) [compound 441, N-(1-(1-(L-alanyl)piperidin-4-yl)ethyl)-3,5-dihydroxy-2-naphthamide] | 
